Consider four molecules from patent US20130004504A1, “METHOD OF MODULATING PHENYLALANINE HYDROXYLASE STRUCTURE AND FUNCTION” (Fox Chase Cancer Center, priority 2011, published 2013).

Like-named read-outs stand apart in the source and are kept apart here.

The target in one data set is T1, PAH (Rattus norvegicus, UniProt P04176).
T1 sequence (P04176 1-453): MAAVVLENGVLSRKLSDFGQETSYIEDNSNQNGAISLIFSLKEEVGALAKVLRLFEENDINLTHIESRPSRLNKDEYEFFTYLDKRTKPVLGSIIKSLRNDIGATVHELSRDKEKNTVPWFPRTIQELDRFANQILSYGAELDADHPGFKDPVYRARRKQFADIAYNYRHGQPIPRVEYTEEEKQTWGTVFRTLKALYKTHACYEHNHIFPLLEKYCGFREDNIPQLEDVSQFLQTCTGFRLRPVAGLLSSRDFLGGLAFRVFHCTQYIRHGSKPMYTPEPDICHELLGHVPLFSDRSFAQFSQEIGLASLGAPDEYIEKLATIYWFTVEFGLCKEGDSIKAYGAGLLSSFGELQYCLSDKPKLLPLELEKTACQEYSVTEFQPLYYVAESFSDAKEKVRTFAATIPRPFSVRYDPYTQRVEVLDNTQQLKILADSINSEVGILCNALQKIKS
Particulars: cited from earlier work.

The target in data set [1] is T2, rat PAH (Rattus norvegicus, UniProt P04176).
T2 construct: expression vectors for full length untagged rat and human PAH from Prof; P. Fitzpatrick; made in house
T2 sequence (P04176 1-453): T1 sequence (P04176 1-453)
Nature of the data set: SEC of purified rat PAH (Superdex 200). Particulars: Phe in running buffer (FIG. 7D). The protocol:
(§1) FIG. 7 represents preliminary results on purified mammalian PAH. […] Full length human PAH, cleaved from an N-terminal MBP fusion construct, runs at a dimer:tetramer ratio of ˜2:1 on a calibrated Superdex-200 column. With 1 mM Phe added to the running buffer, this ratio is shifted to ˜1:1. Buffers contain 125 mM KCl, which is known to stabilize the tetramer. FIG. 7B represents preliminary kinetic studies on purified rat PAH, monitoring tyrosine fluorescence, showing “order of addition” effects at 300 μM Phe and 75 μM BH4. […] FIG. 7E is a full length rat PAH ([…]), run on a 1 ml HiTrap Q column in 30 mM Tris-HCl with a KCl gradient (B=400 mM KCl). […] FIG. 7F is native PhastGel Western blot showing the effects of ligands on the rat PAH quaternary structure equilibrium (overnight, RT, ˜1 mg/ml). Lane 1—as purified; Lane 2—1 mM Phe; Lane 3—50 μM Phe; Lane 4—75 μM BH4; Lane 5, 50 μPhe+75 μM BH4.
(§2) With regard to the oligomeric equilibrium, rat PAH (in 15% glycerol) is found to be predominantly tetrameric by both native PAGE and SEC (FIGS. 7C & 7D). […] Coupled with the SEC results in FIG. 7D, this illustrates that IEC can be used to separate two tetramers, 4mer and 4mer*.

Data set [2] concerns the target T2, rat PAH. Briefly: Ion exchange chromatography of rat PAH (HiTrap Q, KCl gradient). Particulars: 1 mM Phe in the elution buffer, 30 mM Tris-HCl, KCl gradient (FIG. 7E). The procedure:
as §1, §2

Data set [3] deals with T2, rat PAH. Briefly: Native PAGE (PhastGel Western blot) of rat PAH quaternary structure equilibrium. Particulars: ~1 mg/ml rat PAH, overnight, RT; 1 mM or 50 μM Phe, 75 μM BH4. The protocol:
as §1, §2

Data set [4] concerns the molecule itself. Nature of the data set: SEC on calibrated Superdex-200, buffer with 125 mM KCl, no Phe; self-association of PAH subunits. The procedure: as §1
Data set [5] deals with the molecule itself. Nature of the data set: SEC on calibrated Superdex-200, buffer with 125 mM KCl and 1 mM Phe; self-association of PAH subunits. The procedure: as §1
Data set [6] deals with the molecule itself. Nature of the data set: SEC on Superdex 200 (FIG. 7D); self-association.

Regarding `C[C@H](O)[C@H](O)[C@H]1CNc2nc(N)[nH]c(=O)c2N1` [BH4, tetrahydrobiopterin], the Kd is approximately 14 µM on PAH (high-activity forms of PAH, read-out: Kd, binding to the high-activity forms of PAH) and approximately 0.1 µM on PAH (low-activity form(s) of PAH, read-out: Kd, binding to the low-activity form(s) of PAH).

On to `N[C@@H](Cc1ccccc1)C(=O)O` [Phe, phenylalanine], for which the “effect on tetramer predominance by SEC” value at rat PAH [1] is recorded as “not altered”. Besides, the “effect on IEC elution profile” value at rat PAH [2] is reported as “dramatically alters the elution profile”. For the same molecule, at rat PAH [3], the “effect on distribution of PAH quaternary structure isoforms by native PAGE” value was “alters the distribution of PAH quaternary structure isoforms”.

B1: Full length human phenylalanine hydroxylase (PAH), cleaved from an N-terminal MBP fusion construct (enzyme, UniProt P00439 1-452, looked up)
chain: MSTAVLENPGLGRKLSDFGQETSYIEDNCNQNGAISLIFSLKEEVGALAKVLRLFEENDVNLTHIESRPSRLKKDEYEFFTHLDKRSLPALTNIIKILRHDIGATVHELSRDKKKDTVPWFPRTIQELDRFANQILSYGAELDADHPGFKDPVYRARRKQFADIAYNYRHGQPIPRVEYMEEEKKTWGTVFKTLKSLYKTHACYEYNHIFPLLEKYCGFHEDNIPQLEDVSQFLQTCTGFRLRPVAGLLSSRDFLGGLAFRVFHCTQYIRHGSKPMYTPEPDICHELLGHVPLFSDRSFAQFSQEIGLASLGAPDEYIEKLATIYWFTVEFGLCKQGDSIKAYGAGLLSSFGELQYCLSEKPKLLPLELEKTAIQNYTVTEFQPLYYVAESFNDAKEKVRNFAATIPRPFSVRYDPYTQRIEVLDNTQQLKILADSINSEIGILCSALQKIK
notes: mature; also called human PAH
In the case of B1, the figures for the “dimer:tetramer ratio” value in data set [4] and in data set [5] were ~2 dimer:tetramer ratio (x:1) and ~1 dimer:tetramer ratio (x:1), respectively.

B2: Full length untagged rat phenylalanine hydroxylase (PAH), purified by the Shiman affinity method (enzyme, UniProt P04176 2-453, looked up)
chain: AAVVLENGVLSRKLSDFGQETSYIEDNSNQNGAISLIFSLKEEVGALAKVLRLFEENDINLTHIESRPSRLNKDEYEFFTYLDKRTKPVLGSIIKSLRNDIGATVHELSRDKEKNTVPWFPRTIQELDRFANQILSYGAELDADHPGFKDPVYRARRKQFADIAYNYRHGQPIPRVEYTEEEKQTWGTVFRTLKALYKTHACYEHNHIFPLLEKYCGFREDNIPQLEDVSQFLQTCTGFRLRPVAGLLSSRDFLGGLAFRVFHCTQYIRHGSKPMYTPEPDICHELLGHVPLFSDRSFAQFSQEIGLASLGAPDEYIEKLATIYWFTVEFGLCKEGDSIKAYGAGLLSSFGELQYCLSDKPKLLPLELEKTACQEYSVTEFQPLYYVAESFSDAKEKVRTFAATIPRPFSVRYDPYTQRVEVLDNTQQLKILADSINSEVGILCNALQKIKS
notes: mature; Homo-oligomer found predominantly as tetramer, with some dimer; also called rat PAH
Consider B2, for which the binding result in data set [6] is reported as “binds”.
